Source: paper PMC6496959 (Journal of medicinal chemistry, 2018)

System: A/PR/8/34 (NA-H274Y) (H1N1)
Type: cell-based, influenza A virus
Settings: read-out: Antiviral activity (EC50)

NC12CC3CC(CC(C3)C1)C2 [Amantadine, amantadine, reference compound]
EC50: > 100 µM

CCOC(=O)C1=C[C@@H](OC(CC)CC)[C@H](NC(C)=O)[C@@H](N)C1 [Oseltamivir, oseltamivir]
EC50: > 10 µM
